Among the data in patent US12378251B2, “Triazolopyrimidine compound and salt, composition and use thereof” (SHANGHAI INSTITUTE OF MATERIA MEDICA, CHINESE ACADEMY OF …, priority 2019, dated 2025) are inhibition and IC50 values, retold here.

Where two headings read alike, the source gives them in different places. Bounds are passed on as bounds.

The target of experiment [1] is NAE enzyme (human recombinant APPBP1/UBA3) (Homo sapiens (Human), UniProt Q8TBC4). The experiment in a line: Inhibition of NAE enzyme activity at the molecular level (HTRF). The class given is biochemical. As for the experimental part: Homogeneous Time-Resolved Fluorescence (HTRF) technology was used to detect the in vitro inhibitory effect of the compound on NAE enzyme activity. […] (7) the inhibition rate of the compound was calculated by the following formula: • a. […] IC50 was calculated with a GraphPad software.
Chain of NAE enzyme (human recombinant APPBP1/UBA3) (Q8TBC4 whole entry): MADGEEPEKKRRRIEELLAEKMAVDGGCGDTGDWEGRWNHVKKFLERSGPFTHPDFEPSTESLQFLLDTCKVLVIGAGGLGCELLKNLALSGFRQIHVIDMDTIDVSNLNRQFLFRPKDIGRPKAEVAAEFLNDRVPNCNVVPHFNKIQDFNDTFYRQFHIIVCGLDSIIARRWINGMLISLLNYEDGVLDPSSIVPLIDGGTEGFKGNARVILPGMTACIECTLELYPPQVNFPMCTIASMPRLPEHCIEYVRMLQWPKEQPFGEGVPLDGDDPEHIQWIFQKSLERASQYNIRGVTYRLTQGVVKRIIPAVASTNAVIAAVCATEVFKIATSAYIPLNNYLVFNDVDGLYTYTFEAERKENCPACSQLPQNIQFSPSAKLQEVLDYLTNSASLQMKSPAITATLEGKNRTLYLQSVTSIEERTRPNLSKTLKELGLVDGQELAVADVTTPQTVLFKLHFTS
Chain of NAE enzyme (human recombinant APPBP1/UBA3) (Q13564 whole entry partner): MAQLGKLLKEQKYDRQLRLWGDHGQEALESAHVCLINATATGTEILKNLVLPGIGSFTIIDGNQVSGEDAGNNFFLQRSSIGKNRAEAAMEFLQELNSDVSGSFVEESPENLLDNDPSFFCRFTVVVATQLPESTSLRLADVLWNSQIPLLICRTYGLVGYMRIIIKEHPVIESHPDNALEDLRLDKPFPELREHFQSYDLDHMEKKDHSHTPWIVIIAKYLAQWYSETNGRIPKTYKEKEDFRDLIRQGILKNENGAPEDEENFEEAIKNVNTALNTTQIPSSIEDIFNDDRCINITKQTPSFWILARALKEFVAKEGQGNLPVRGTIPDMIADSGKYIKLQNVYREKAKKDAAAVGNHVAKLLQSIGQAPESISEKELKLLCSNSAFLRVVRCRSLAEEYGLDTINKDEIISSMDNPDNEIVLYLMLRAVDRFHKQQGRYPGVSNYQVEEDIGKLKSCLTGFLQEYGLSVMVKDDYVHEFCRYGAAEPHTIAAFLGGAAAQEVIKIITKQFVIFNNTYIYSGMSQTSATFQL

Experiment [2] relates to human colon cancer cells HCT-116. The experiment in a line: Inhibition of proliferation of HCT-116 cells (SRB method). The class given is cell-based. As for the experimental part: The inhibitory effects of the compounds on the proliferation of human colon cancer cells HCT-116 were detected by a sulforodamine B (SRB) method. The specific steps were as follows: HCT-116 cells in the logarithmic phase were seeded into a 96-well culture plate at a suitable density with 90 μL per well. After overnight cultivation, the compounds at different concentrations were added to act for 72 h, and a solvent control group (negative control) was set. After 72 h of the compounds acting on the cells, the effects of the compounds on cell proliferation were detected using the SRB method as follows. The culture solution was discarded, and 100 μL/well of 10% trichloroacetic acid (TCA) pre-cooled at 4° C. was added, fixed at 4° C. for 1 h, then washed with distilled water for 5 times, and naturally dried in the air; 100 μL/well of SRB (4 mg/ml) solution prepared by 1% glacial acetic acid was added, stained at room temperature for 15 minutes; the supernatant was removed, washed with 1% acetic acid for 5 times, and air dried; 150 μl/well of Tris (10 mM) solution was added, then left at room temperature for 15 minutes; finally, a full-wavelength microplate enzyme-labeled instrument SpectraMax 190 was used to read with a measurement wavelength of 560 nm. The inhibition rate (%) of the compound on tumor cell growth was calculated by the following formula: [formula]
On the technique in general: In SRB staining, fixed cells bind dye roughly in proportion to their protein.

The mark [3] stands for this setting: HCT-116 cells, 72 h, SRB, read-out: HCT-116 IC50*.
[4] abbreviates: HCT-116, 72 h, read-out: HCT-116 IC50* (μM).

For the compound `NS(=O)(=O)OCC1CC(n2nnc3c(Nn4ccc5ccccc54)ncnc32)CC1O` (stereo not drawn) [Compound S18], the inhibition at 10 µM in experiment [1] (2 h; read-out: IR (10 μM)) is 43.3%. Further, in experiment [2] (setting [3]), the IC50 is more than 100 µM.
In the same order, the values of `CCCCCCNc1ncnc2c1nnn2C1CC(O)C(COS(N)(=O)=O)C1` (stereo not drawn) [Compound S8] are 98.3% and more than 100 µM.
As to `NS(=O)(=O)OCC1CC(n2nnc3c(NCCCc4ccccc4)ncnc32)CC1O` (stereo not drawn) [Compound S7], the inhibition at 10 µM in experiment [1] (2 h; read-out: IR (10 μM)) is 96.1%. The IC50 in experiment [1] (NAE enzyme activity, HTRF) is 0.1 to 1 µM; in experiment [2] (setting [3]) it was more than 100 µM.
Turning to `NS(=O)(=O)OCC1CC(n2nnc3c(NCc4ccco4)ncnc32)CC1O` (stereo not drawn) [Compound S4], the inhibition at 10 µM in experiment [1] (2 h; read-out: IR (10 μM)) worked out at 98.6%. Further, the IC50 in experiment [2] (setting [3]) was 0.01 to 100 µM.
In the same order, the values of `NS(=O)(=O)OC[C@@H]1C[C@@H](n2nnc3c(N[C@@H]4C[C@H]4c4ccc(F)c(F)c4)ncnc32)CC1O` (stereo partly drawn) [Compound S16] are 85.2% and more than 100 µM.
On to `NS(=O)(=O)OCC1CC(n2nnc3c(N[C@H]4CCc5ccccc54)ncnc32)CC1O` (stereo partly drawn) [Compound S1], for which the inhibition at 10 µM in experiment [1] (2 h, read-out: IR (10 μM)) is 99%. In addition, in experiment [2] (setting [4]), the IC50 was less than 0.01 µM.
For the compound `NS(=O)(=O)OCC1CC(n2nnc3c(NCc4cccs4)ncnc32)CC1O` (stereo not drawn) [Compound S3], the inhibition at 10 µM in experiment [1] (2 h; read-out: IR (10 μM)) worked out at 98.8%. In addition, the IC50 in experiment [2] (setting [3]) was 0.01 to 100 µM.
For `NS(=O)(=O)OCC1CC(n2nnc3c(NCCc4cccs4)ncnc32)CC1O` (stereo not drawn) [Compound S5], the inhibition at 10 µM in experiment [1] (2 h, read-out: IR (10 μM)) came out at 95.2%. Also, the IC50 in experiment [1] (NAE enzyme activity, HTRF) was 0.1 to 1 µM; in experiment [2] (setting [4]), more than 100 µM.
As to `CN1CCC2(CC1)C[C@H](Nc1ncnc3c1nnn3C1CC(O)C(COS(N)(=O)=O)C1)c1ccccc12` (stereo partly drawn) [Compound S15], the inhibition at 10 µM in experiment [1] (2 h; read-out: IR (10 μM)) turned out to be 77%. Moreover, the IC50 lay in the range of 0.1 to 1 µM in experiment [1] (NAE enzyme activity, HTRF) and 0.01 to 100 µM in experiment [2] (setting [3]).
Turning to `NS(=O)(=O)OCC1CC(n2nnc3c(NCc4ccccc4F)ncnc32)CC1O` (stereo not drawn) [Compound S2], in experiment [1] (2 h; read-out: IR (10 μM)), the inhibition at 10 µM came to 99.5%. The IC50 in experiment [2] (setting [3]) was less than 0.01 µM.
As to `NS(=O)(=O)OCC1CC(n2nnc3c(NCCc4ccccc4)ncnc32)CC1O` (stereo not drawn) [Compound S6], in experiment [1] (2 h, read-out: IR (10 μM)), the inhibition at 10 µM turned out to be 95.8%. In addition, the IC50 in experiment [2] (setting [4]) is more than 100 µM.
Take `NS(=O)(=O)OCC1CC(n2nnc3c(N[C@H]4CC5(CCNCC5)c5ccccc54)ncnc32)CC1O` (stereo partly drawn) [Compound S14]: the inhibition at 10 µM in experiment [1] (2 h; read-out: IR (10 μM)) was 91.4%. In addition, the concentration for half-maximal inhibition (IC50) in experiment [2] (setting [3]) was more than 100 µM.
With `COC(=O)[C@H]1C=C[C@@H](Nc2ncnc3c2nnn3C2CC(O)C(COS(N)(=O)=O)C2)C1` (stereo partly drawn) [Compound S20], the inhibition at 10 µM in experiment [1] (2 h, read-out: IR (10 μM)) is 84.8%. For the same compound, the IC50 in experiment [2] (setting [4]) was more than 100 µM.
As for `NS(=O)(=O)OCC1CC(n2nnc3c(N[C@@H]4c5ccccc5C[C@@H]4O)ncnc32)CC1O` (stereo partly drawn) [Compound S9], the inhibition at 10 µM in experiment [1] (2 h; read-out: IR (10 μM)) worked out at 98.3%. Besides, the IC50 in experiment [2] (setting [3]) was less than 0.01 µM.
In the case of `NS(=O)(=O)OCC1CC(n2nnc3c(Nc4n[nH]c5ccccc45)ncnc32)CC1O` (stereo not drawn) [Compound S17], in experiment [1] (2 h; read-out: IR (10 μM)), the inhibition at 10 µM is 7.9%. In addition, the IC50 in experiment [2] (setting [3]) was more than 100 µM.
`NS(=O)(=O)OC[C@@H]1C[C@@H](n2ccc3c(N[C@H]4CCc5ccccc54)ncnc32)C[C@@H]1O` [MLN4924, reference compound]: the inhibition at 10 µM in experiment [1] (2 h, read-out: IR (10 μM)) was determined as 98.6%. The IC50 in experiment [2] (setting [3]) was less than 0.01 µM.
Turning to `NS(=O)(=O)OCC1CC(n2nnc3c(NC4CCCC4)ncnc32)CC1O` (stereo not drawn) [Compound S21], the inhibition at 10 µM in experiment [1] (2 h; read-out: IR (10 μM)) was 48.2%. Further, the IC50 in experiment [2] (setting [3]) was more than 100 µM.
In the same order, the values of `NS(=O)(=O)OCC1CC(n2nnc3c(Nc4cnc5ccccn45)ncnc32)CC1O` (stereo not drawn) [Compound S19] are 57.8% and more than 100 µM.

A word on the IC50: it is the concentration needed to halve the response being measured.
